In test [1] the target is hROMK (hKir1.1) (Homo sapiens (Human), UniProt P48048). As to the kind of experiment: Thallium Flux Assay. The class given is cell-based. The settings on record: HEK293 cells stably expressing hROMK (hKir1.1); FLIPR-Tetra, 30 min compound incubation. The source says:
(§1) Several assays may be used to measure functional inhibition of the ROMK channel by compounds of the instant invention. One assay that can be used is an electrophysiology assay that measures the electrical current that is generated as potassium permeates through the channel. Another ROMK functional assay makes use of the ability of thallium to permeate through open ROMK channels and increase the fluorescence of a dye previously loaded into the cells. Under control conditions, cells loaded with dye and exposed to thallium-containing medium display a time-dependent increase in fluorescence, the rate of which depends on number of functional channels. When cells are incubated in the presence of a channel inhibitor, the increase in fluorescence is attenuated in a concentration-dependent manner, and IC50 values of inhibition by compounds can be accurately determined. This assay has been established with cell lines expressing either human, or rat ROMK channels, and operates in 384-well format.
HEK293 cells stably expressing hROMK (hKir1.1) were grown at 37° C. in a 10% CO2 humidified incubator in complete growth media: Dulbecco's Modified Eagle Medium supplemented with non-essential amino acids, Penicillin/Streptomycin/Glutamine, G418 and FBS. At >80% confluency, the media was aspirated from the flask and the sample was rinsed with 10 ml Calcium/Magnesium-free PBS. […] To dislodge the cell, the side of the flask was gently banged with a hand. The cells were triturated completely and then transferred to 25 ml complete media. The sample was then centrifuged at 1,500 rpm for 6 minutes, followed by resuspension in complete growth media and then cell concentration was determined. […] Under ideal growth conditions and appropriate tissue culture practices, this cell line is stable for 40-45 passages.
• FluxOR™ Reagent (Component A) • FluxOR™ Assay Buffer (Component B)—10× Concentrate • PowerLoad™ Concentrate (Component C)—100× Concentrate • Probenecid (Component D)—Lyophilized sample is kept at −20° C. Water soluble, 100× after solubilization in 1 ml water. […] Store at 4° C. • Thallium sulfate (Tl2SO4) Concentrate (Component G)—50 mM in water. […] Can be stored at room temperature • Stimulant Buffer (prepared at 5× final concentration in 1× FluxOR™ Chloride-Free Buffer): 7.5 mM Thallium sulfate and 0.75 mM Potassium sulfate (to give a final assay concentration of 3 mM Thallium/0.3 mM Potassium). Store at 4° C. when not in use. If kept sterile, this solution is good for months. Assay Protocol—
The ROMK channel functional thallium flux assay is performed in 384 wells, using the FLIPR-Tetra instrument. HEK-hKir1.1 cells are seeded in Poly-D-Lysine microplates and kept in a 37° C.-10% CO2 incubator overnight. On the day of the experiment, the growth media is replaced with the FluxOR™ reagent loading buffer and incubated, protected from light, at ambient temperature (23-25° C.) for 90 min. The loading buffer is replaced with assay buffer±test compound followed by 30 min incubation at ambient temperature, where the Thallium/Potassium stimulant is added to the microplate.
• 1. Seed HEK-hKir1.1 cells (50 μl at 20,000 cells/well) in 384-well PDL coated Microplates • 2. Allow cells to adhere overnight in humidified 37° C./10% CO2 incubator • 3. Completely remove cell growth media from microplate and replace with 25 μl loading buffer • 4. Incubate Microplate at room temperature, protected form light, for 90 min • 5. Remove loading buffer and replace with 25 μl 1× Assay Buffer±test compound. • 6. Incubate microplate at room temperature, protected form light, for 30 min • 7. […] Excitation=400 nm, Emission=460 & 580 nm. Collect data for 10 min. Data Calculation—
The fluorescence intensity of wells containing 3 μM of a standard control ROMK inhibitor of the present invention is used to define the ROMK-sensitive component of thallium flux. Fluorescence in the presence of test compounds is normalized to control values to provide % fluorescence change.

Test [2] deals with Kir1.1 (ROMK1) (Homo sapiens (Human), UniProt P48048). As to the kind of experiment: Electrophysiology Assay (whole cell voltage clamp, IonWorks Quattro). It is filed as cell-based. The settings on record: Chinese hamster ovary cells stably expressing Kir1.1; block at voltage step to 0 mV, 6 minutes compound incubation; read-out: EP Assay IC50.
Chain of Kir1.1 (ROMK1) (P48048 whole entry, species assumed): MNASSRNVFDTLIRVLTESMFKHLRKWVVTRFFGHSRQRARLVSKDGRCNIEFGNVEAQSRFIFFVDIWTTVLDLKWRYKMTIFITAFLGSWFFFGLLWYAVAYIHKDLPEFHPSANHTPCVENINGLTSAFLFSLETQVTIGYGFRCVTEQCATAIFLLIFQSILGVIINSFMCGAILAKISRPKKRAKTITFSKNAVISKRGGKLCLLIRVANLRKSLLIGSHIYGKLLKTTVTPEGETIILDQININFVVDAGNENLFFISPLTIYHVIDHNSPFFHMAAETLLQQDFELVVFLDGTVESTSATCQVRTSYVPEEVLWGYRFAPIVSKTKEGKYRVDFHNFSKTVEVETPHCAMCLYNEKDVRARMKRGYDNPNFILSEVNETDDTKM
Source text: as §1
Block of Kir1.1 (ROMK1) currents was examined by whole cell voltage clamp (Hamill et. al. Pfluegers Archives 391:85-100 (1981)) using the IonWorks® Quattro automated electrophysiology platform (Molecular Devices, Sunnyvale, Calif.). Chinese hamster ovary cells stably expressing Kir1.1 channels were maintained in T-75 flasks in cell culture media in a humidified 10% CO2 incubator at 37° C. Prior to an experiment, Kir1.1 expression was induced by overnight incubation with 1 mM sodium butyrate. On the day of the experiment, cells were dissociated with 2.5 ml of Versene™ (Invitrogen 15040-066) for approximately 6 minutes at 37° C. and suspended in 10 ml of bath solution containing (in mM): 150 NaCl, 10 KCl, 2.7 CaCl2, 0.5 MgCl2, 5 HEPES, pH 7.4. After centrifugation, the cell pellet was resuspended in approximately 4.0 ml of bath solution and placed in the IonWorks® instrument. The intracellular solution consisted of (in mM): 80 K gluconate, 40 KCl, 20 KF, 3.2 MgCl2, 3 EGTA, 5 Hepes, pH 7.4. Electrical access to the cytoplasm was achieved by perforation in 0.13 mg/ml amphotericin B for 4 minutes. Amphotericin B (Sigma A-4888) was prepared as a 40 mg/ml solution in DMSO.
Voltage protocols and current recordings were performed using the IonWorks® HT software/hardware system. Currents were sampled at 1 kHz. No correction for liquid junction potentials was used. The test pulse, consisting of a 100 ms step to 0 mV from a holding potential of −70 mV, followed by a 100 ms voltage ramp from −70 mV to +70 mV, was applied before and after a 6 minutes compound incubation period. Test compounds were prepared by diluting DMSO stock solutions into the bath solution at 3× the final concentration and placed in the instrument in 96-well polypropylene plates. Current amplitudes were measured using the IonWorks® software. To assess compound potency, the fractional block during the voltage step to 0 mV was calculated in Microsoft® Excel (Microsoft, Redmond, Calif.), and dose-response curves were fitted with Igor Pro 4.0 (WaveMetrics, Lake Oswego, Oreg.).

Chain of hROMK (hKir1.1) (P48048 whole entry): as the sequence (P48048 whole entry, species assumed) above

As for `Cc1c([C@@H](O)CN2CCC3CN(CC(O)c4ccc(C#N)cn4)CC32)ccc2c1COC2=O` (single isomer, unassigned) [Example 7A], the IC50 – broadly, the concentration needed to halve the response being measured – was 152 nM in test [1] and 47 nM in test [2].

Turning to `Cc1c([C@@H](O)CN2CCC3CN(CC(O)c4ccc(C#N)cn4)CC32)ccc2c1COC2=O` (single isomer, unassigned) [Example 7B], the IC50 was 566 nM in test [1] and 2400 nM in test [2].

On to `Cc1c([C@@H](O)CN2CCC3CN(S(=O)(=O)c4ccc(C#N)cc4)CC32)ccc2c1COC2=O` (single isomer, unassigned) [Example 8B], for which inhibition in test [1] was half-maximal at 662 nM (IC50).

For the compound `Cc1c([C@@H](O)CN2CCC3(CCCN3C[C@H](O)c3ccc4c(c3C)COC4=O)C2)ccc2c1COC2=O` (single isomer, unassigned) [Example 10B], the values for the IC50 in test [1] and in test [2] were 76 nM and 184 nM, respectively.

In test [1], `Cc1c([C@@H](O)CN2C(C)CC3CN(CC(O)c4ccc(C#N)cn4)CC32)ccc2c1COC2=O` (single isomer, unassigned) [Example 11A] displayed an IC50 of 93 nM.

For `Cc1c([C@@H](O)CN2C(C)CC3CN(CC(O)c4ccc(C#N)cn4)CC32)ccc2c1COC2=O` (single isomer, unassigned) [Example 11B], the results for the IC50 in test [1] and in test [2] were 91 nM and 53 nM, respectively.

As for `Cc1cc(S(=O)(=O)N2CCCC23CCN(C[C@H](O)c2ccc4c(c2C)COC4=O)C3)ccc1-n1cnnn1` (single isomer, unassigned) [Example 18A], the IC50 in test [1] was 138 nM; in test [2], 79 nM.

As to `Cc1cc(S(=O)(=O)N2CCCC23CCN(C[C@H](O)c2ccc4c(c2C)COC4=O)C3)ccc1-n1cnnn1` (single isomer, unassigned) [Example 18B], the IC50 in test [1] turned out to be 294 nM; in test [2], 125 nM.

In turn, `Cc1c([C@@H](O)CN2CC3CN(CC(O)c4ccc(C#N)cn4)C3C2)ccc2c1COC2=O` (single isomer, unassigned) [Example 22] came in with an IC50 in test [1] of 916 nM.

Take `Cc1c([C@@H](O)CN2CC3CN(CC(O)c4ccc(C#N)cn4)C3C2)ccc2c1COC2=O` (single isomer, unassigned) [Example 23]: the figures for the IC50 in test [1] and in test [2] were 540 nM and 1800 nM, respectively.

For the compound `Cc1c([C@@H](O)CN2CCCC3(CCN(C[C@H](O)c4ccc5c(c4C)COC5=O)C3)C2)ccc2c1COC2=O` (stereo partly drawn) [Example 1, 5,5′-{2,7-Diazaspiro[4.5]decane-2,7-diylbis[(1R)-1-hydroxyethane-2,1-diyl]}bis(4-methyl-2-benzofuran-1(3H)-one)], the IC50 in test [1] turned out to be 274 nM; in test [2], 117 nM.

`Cc1c([C@@H](O)CN2CC3CCN(C(=O)c4ccc(C#N)cn4)CC3C2)ccc2c1COC2=O` (stereo partly drawn) [Example 3, 6-({2-[(2R)-2-Hydroxy-2-(4-methyl-1-oxo-1,3-dihydro-2-benzofuran-5-yl)ethyl]octahydro-5H-pyrrolo[3,4-c]pyridine-5-yl}carbonyl)pyridine-3-carbonitrile] came in with an IC50 in test [1] of 865 nM.

With `Cc1c([C@@H](O)CN2CCCC3(CCCN3C[C@H](O)c3ccc4c(c3C)COC4=O)C2)ccc2c1COC2=O` (stereo partly drawn) [Example 5, 5,5′-{1,7-Diazaspiro[4.5]decane-1,7-diylbis[(1R)-1-hydroxyethane-2,1-diyl]}bis(4-methyl-2-benzofuran-1(3H)-one)], the figures for the IC50 in test [1] and in test [2] were 737 nM and 348 nM, respectively.

Take `Cc1c([C@@H](O)CN2CCCC3(CCCN(C[C@H](O)c4ccc5c(c4C)COC5=O)C3)C2)ccc2c1COC2=O` [Example 6, 5,5′-{2,8-Diazaspiro[5.5]undecane-2,8-diylbis[(1R)-1-hydroxyethane-2,1-diyl]}bis(4-methyl-2-benzofuran-1(3H)-one)]: the IC50 in test [1] is 359 nM; in test [2], 201 nM.

For `N#Cc1ccc(S(=O)(=O)N2CCC3CN(C[C@H](O)c4ccc5c(c4)COC5=O)CC32)cc1` (stereo partly drawn) [Example 9, 4-(5-((R)-2-Hydroxy-2-(1-oxo-1,3-dihydroisobenzofuran-5-yl)ethyl)hexahydropyrrolo[3,4-b]pyrrol-1(2H)-ylsulfonyl)benzonitrile], the IC50 in test [1] came out at 234 nM.

`Cc1c([C@@H](O)CN2CCC3(CCCN(C(=O)c4ccc(-n5cnnn5)nc4)C3)C2)ccc2c1COC2=O` (stereo partly drawn) [Example 14, 5-((1R)-2-(7-(6-(1H-tetrazol-1-yl)nicotinoyl)-2,7-diazaspiro[4.5]decan-2-yl)-1-hydroxyethyl)-4-methylisobenzofuran-1(3H)-one]: the half-maximal inhibitory concentration (IC50) in test [1] amounted to 241 nM; in test [2], 108 nM.

On to `Cc1c([C@@H](O)CN2CC3CCN(C(=O)c4ccc(-n5cnnn5)nc4)CC3C2)ccc2c1COC2=O` (stereo partly drawn) [Example 15, 5-((1R)-2-(5-(6-(1H-Tetrazol-1-yl)nicotinoyl)-1H-pyrrolo[3,4-c]_yridine-2(3H,3aH,4H,5H,6H,7H,7aH)-yl)-1-hydroxyethyl)-4-methylisobenzofuran-1(3H)-one], for which the figures for the IC50 in test [1] and in test [2] were 103 nM and 200 nM, respectively.

Regarding `Cc1c([C@@H](O)CN2CCC3CN(C(=O)c4ccc(-n5cnnn5)cn4)CC32)ccc2c1COC2=O` (stereo partly drawn) [Example 16, 5-((1R)-2-(5-(5-(1H-tetrazol-1-yl)picolinoyl)hexahydropyrrolo[3,4-b]pyrrol-1(2H)-yl)-1-hydroxyethyl)-4-methylisobenzofuran-1(3H)-one], the figures for the IC50 in test [1] and in test [2] were 602 nM and 850 nM, respectively.

In turn, `Cc1c([C@@H](O)CN2CCC3CN(S(=O)(=O)c4ccc(-n5cnnn5)cc4)CC32)ccc2c1COC2=O` (stereo partly drawn) [Example 20, 5-((1R)-2-(5-(4-(1H-Tetrazol-1-yl)phenylsulfonyl)hexahydropyrrolo[3,4-b]pyrrol-1(2H)-yl)-1-hydroxyethyl)-4-methylisobenzofuran-1(3H)-one] registered an IC50 in test [1] of 1050 nM.

The values above are taken from US9493474B2, “Inhibitors of the renal outer medullary potassium channel” (Merck Sharp & Dohme Corp., priority 2011, dated 2016).
